test system: human KRAS G12C mutated cell line MIA PaCa-2; experiment: Inhibition of proliferation of MIA PaCa-2 cells (CellTiter-Glo, 7 day); assay type: cell-based; conditions: 168 h, Table 1, CellTiter-Glo luminescence read on day 7, read-out: MIA PaCa-2 IC50
From the text: The present example evaluates the ability of compounds provided herein to inhibit proliferation of KRAS mutant cells.
The proliferation inhibitory effect was investigated in the human KRAS G12C mutated cell line MIA PaCa-2 (Yunis et al., 1977, Int. J. Cancer 19(1):128-135; ATCC catalog no. CRL-1420). Cells were maintained in RPMI-1640 medium (ThermoFisher catalog no. 61870036) supplemented with 10% of Heat Inactivated FBS (ThermoFisher catalog no. A31605) and 1% Pen-Strep (ThermoFisher catalog no. 10378016) and cultured at 37° C. in a humidified incubator with 5% CO2. Cell lines were grown by adhering to culture flasks, and the cells were maintained in a range 70%-80% confluency.
ATP is present in all metabolically active cells and is considered as a marker for cell viability and proliferation. Metabolic cell activity was determined using the CellTiter-Glo kit (Promega catalog no. G7572), an ATP monitoring system based on the production of luminescence by the reaction of ATP with added UltraGlo® recombinant luciferase (Kawano et al., 2016, PLOS One, 8; 11(7):e0158888), according to the supplier's experimental recommendations. The assay was based on a 96 well plate format.
Test compounds were dissolved at 10 mM in DMSO (Sigma catalog no. D8418; purity >99.9%) and stored at −20° C. Eight concentrations of test compound were assessed in duplicate in an individual test occasion in parallel in the selected cell lines. MRTX-849 and AMG-510 were used as reference compounds and tested in duplicate at eight concentrations. 100% of proliferation is represented by the untreated cells (0.2% DMSO).
(§1) On the day of the experiment (TO), cells were detached with TrypLE (ThermoFisher catalog no. 12604054) and quantified using the Vi-CELL XR Cell Viability (Beckman Coulter) analyzer and diluted with fresh medium to obtain the cell density of about 1000 cells per 200 μL medium. 200 μL of cell suspension were added into wells in the 96 well plate.
After 2 hours from seeding cells, compounds were added using a D300e compound dispenser (Tecan Trading AG) at desired concentrations with shaking between each compound dispensed. Cell plates containing 200 μL/well were incubated at 37° C. in a humidified incubator with 5% CO2.
On day T3, 150 μL of growth media per well were removed from plates containing the samples, 150 uL fresh growth media were added to each well, and fresh compounds were added using a D300e compound dispenser (Tecan Trading AG) at desired concentrations with shaking between each compound dispensed. Cell plates containing 200 uL/well were incubated at 37° C. in a humidified incubator with 5% CO2. On day T7 plates containing the samples were equilibrated at room temperature for approximately 15 min, and then 40 μL/well of the Promega CellTiterGlo® reagent was added. Contents were mixed for 30 minutes on an orbital shaker to induce cell lysis. Luminescence was read using a Synergy Neo 2 (Agilent Technologies.
Data was expressed as % of inhibition compared to the 0.2% DMSO negative control, and is calculated as follows: % inhibition=100−[(RLU sample)×100/(RLU controls*)], where * indicates the average for 0.2% DMSO. […]
as §1, with “12604054),” for “12604054) and”, “resuspended in” for “diluted with”, “at a” for “to obtain the”, “to each well of a” for “into wells in the”
Two hours after seeding cells, compounds were added at desired concentrations using a D300e compound dispenser (Tecan Trading AG) with shaking after each compound addition. Assay plates were incubated at 37° C. in a humidified incubator with 5% CO2.
On day 3 (T3) 150 μL of medium from assay plates were removed. 150 μL fresh medium and compounds were added at desired concentrations using a D300e compound dispenser (Tecan Trading AG) with shaking after each compound addition. […]

With `C=CC(=O)N1[C@@H]2CC[C@H]1CN(c1nc(OC[C@@]34CCCN3C[C@H](F)C4)nc3c(F)c(-c4cc(O)cc(Cl)c4C4CC4)ccc13)C2` [Compound 1, 1-((1R,5S)-3-(7-(3-chloro-2-cyclopropyl-5-hydroxyphenyl)-8-fluoro-2-(((2R,7aS)-2-fluorotetrahydro-1H-pyrrolizin-7a(5H)-yl)methoxy)quinazolin-4-yl)-3,8-diazabicyclo[3.2.1]octan-8-yl)prop-2-en-1-one] the IC50 was 0.000742 µM.

same assay, conditions: 168 h, Table 3, 7 day, mean, read-out: MIA PaCa-2 IC50 (μM) 7 day Mean

Point of comparison: `C=CC(=O)N1C2CCC1CN(c1nc(OC[C@@]34CCCN3C[C@H](F)C4)nc3c(F)c(-c4cc(O)cc5ccc(F)c(F)c45)ncc13)C2` [Compound 306, 1-[3-[7-(7,8-difluoro-3-hydroxy-1-naphthyl)-8-fluoro-2-[[(2R,8S)-2-fluoro-1,2,3,5,6,7-hexahydropyrrolizin-8-yl]methoxy]pyrido[4,3-d]pyrimidin-4-yl]-3,8-diazabicyclo[3.2.1]octan-8-yl]prop-2-en-1-one], IC50 0.0015 µM. Against it:
- C=C(F)C(=O)N1C2CCC1CN(c1nc(OC[C@@]34CCCN3C[C@H](F)C4)nc3c(F)c(-c4cc(O)cc(Cl)c4C4CC4)ccc13)C2 [Compound 307, 1-[3-[7-(3-chloro-2-cyclopropyl-5-hydroxy-phenyl)-8-fluoro-2-[[(2R,8S)-2-fluoro-1,2,3,5,6,7-hexahydropyrrolizin-8-yl]methoxy]quinazolin-4-yl]-3,8-diazabicyclo[3.2.1]octan-8-yl]-2-fluoro-prop-2-en-1-one] — 84-fold higher, 0.126 µM
- C=CC(=O)N1C[C@H]2C[C@@H]1CN2c1nc(OC[C@@]23CCCN2C[C@H](F)C3)nc2cc(-c3cccc4cccc(Cl)c34)c(F)cc12 [Compound 322, 1-[(1R,4R)-5-[7-(8-chloro-1-naphthyl)-6-fluoro-2-[[(2R,8S)-2-fluoro-1,2,3,5,6,7-hexahydropyrrolizin-8-yl]methoxy]quinazolin-4-y1]-2,5-diazabicyclo[2.2.1]heptan-2-yl]prop-2-en-1-one] — higher, > 1 µM
- C=CC(=O)N1C2CCC1CN(c1nc(OC[C@@]34CCCN3C[C@H](F)C4)nc3cc(-c4cc(O)cc(Cl)c4C4CC4)cnc13)C2 [Compound 309] — higher, > 1 µM
- C=CC(=O)N1CCC(c2nc(OC[C@@]34CCCN3C[C@H](F)C4)nc3c(F)c(-c4cc(O)cc5ccc(F)c(F)c45)ncc23)CC1 [Compound 330] — 4.4-fold higher, 0.00664 µM
- C=CC(=O)N1CCC(C)(c2nc(OC[C@@]34CCCN3C[C@H](F)C4)nc3c(F)c(-c4cc(O)cc(Cl)c4C4CC4)ncc23)CC1 [Compound 335] — 570-fold higher, 0.858 µM
- C=CC(=O)N1C2CCC1CN(c1nc(OC[C@@]34CCCN3C[C@H](F)C4)nc3c(F)c(-c4cc(O)cc5cccc(Cl)c45)ncc13)C2 [Compound 305, 1-[3-[7-(8-chloro-3-hydroxy-1-naphthyl)-8-fluoro-2-[[(2R,8S)-2-fluoro-1,2,3,5,6,7-hexahydropyrrolizin-8-yl]methoxy]pyrido[4,3-d]pyrimidin-4-y1]-3,8-diazabicyclo[3.2.1]octan-8-yl]prop-2-en-1-one] — 1.5-fold higher, 0.0023 µM
- C=CC(=O)N1CCN(c2nc(OC[C@@]34CCCN3C[C@H](F)C4)nc3cc(-c4cc(O)cc(Cl)c4C4CC4)c(F)cc23)C2(CC2)C1 [Compound 316, 1-[4-[7-(3-chloro-2-cyclopropyl-5-hydroxy-phenyl)-6-fluoro-2-[[(2R,8S)-2-fluoro-1,2,3,5,6,7-hexahydropyrrolizin-8-yl]methoxy]quinazolin-4-yl]-4,7-diazaspiro[2.5]octan-7-yl]prop-2-en-1-one] — higher, > 1 µM
- C=CC(=O)N1CCN(c2nc(OC[C@@]34CCCN3C[C@H](F)C4)nc3cc(-c4c(O)cccc4C4CC4)cnc23)[C@H](C)C1 [Compound 320, 1-[(3R)-4-[7-(2-cyclopropyl-6-hydroxy-phenyl)-2-[[(2R,8S)-2-fluoro-1,2,3,5,6,7-hexahydropyrrolizin-8-yl]methoxy]pyrido[3,2-d]pyrimidin-4-yl]-3-methyl-piperazin-1-yl]prop-2-en-1-one] — higher, > 1 µM

same assay, conditions: 168 h, Table 4, 7 day, mean, read-out: MIA PaCa-2 IC50 (μM) 7 day Mean

Point of comparison: `C[C@@H]1CC(c2nc(OC[C@@]34CCCN3C[C@H](F)C4)nc3c(F)c(-c4cc(O)cc5ccc(F)c(F)c45)ncc23)CCN1` (stereo partly drawn) [Compound 440, 5,6-difluoro-4-[8-fluoro-2-[[(2R,8S)-2-fluoro-1,2,3,5,6,7-hexahydropyrrolizin-8-yl]methoxy]-4-[(2R)-2-methyl-4-piperidyl]pyrido[4,3-d]pyrimidin-7-yl]naphthalen-2-ol], IC50 3.65 µM. Against it:
- Oc1cc(Cl)c(C2CC2)c(-c2cc3nc(OC[C@@]45CCCN4C[C@H](F)C5)nc(N4CCNC5(CC5)C4)c3cc2F)c1 [Compound 405, 3-chloro-4-cyclopropyl-5-[4-(4,7-diazaspiro[2.5]octan-7-y1)-6-fluoro-2-[[(2R,8S)-2-fluoro-1,2,3,5,6,7-hexahydropyrrolizin-8-yl]methoxy]quinazolin-7-yl]phenol] — not separable, > 1 µM
- Cn1ccnc1-c1c(F)cccc1-c1cnc2c(N3CC4CCC(C3)N4)nc(OC[C@@]34CCCN3C[C@H](F)C4)nc2c1 [Compound 427, 4-(3,8-diazabicyclo[3.2.1]octan-3-yl)-2-[[(2R,8S)-2-fluoro-1,2,3,5,6,7-hexahydropyrrolizin-8-yl]methoxy]-7-[3-fluoro-2-(1-methylimidazol-2-yl)phenyl]pyrido[3,2-d]pyrimidine] — not separable, > 1 µM
- OC1Cc2cccc(Cl)c2N(c2ncc3c(N4CC5CCC(C4)N5)nc(OC[C@@]45CCCN4C[C@H](F)C5)nc3c2F)C1 (stereo partly shown) [Compound 432] — not separable, > 1 µM
- Oc1cc(Cl)c(C2CC2)c(-c2cnc3c(N4CCNCC45CC5)nc(OC[C@@]45CCCN4C[C@H](F)C5)nc3c2)c1 [Compound 414, 3-chloro-4-cyclopropyl-5-[4-(4,7-diazaspiro[2.5]octan-4-yl)-2-[[(2R,8S)-2-fluoro-1,2,3,5,6,7-hexahydropyrrolizin-8-yl]methoxy]pyrido[3,2-d]pyrimidin-7-yl]phenol] — not separable, > 1 µM
- Oc1cc(-c2ncc3c(C4CC5CCC(C4)N5)nc(OC[C@@]45CCCN4C[C@H](F)C5)nc3c2F)c2c(F)c(F)ccc2c1 (stereo partly drawn) [Compound 443, 4-[4-(8-azabicyclo[3.2.1]octan-3-yl)-8-fluoro-2-[[(2R,8S)-2-fluoro-1,2,3,5,6,7-hexahydropyrrolizin-8-yl]methoxy]pyrido[4,3-d]pyrimidin-7-y1]-5,6-difluoro-naphthalen-2-ol] — not separable, > 1 µM
- C[C@@H]1CNCCN1c1nc(OC[C@@]23CCCN2C[C@H](F)C3)nc2cc(-c3c(O)cccc3C3CC3)c(F)cc12 [Compound 426] — not separable, > 1 µM
- Fc1cc2c(N3CCNC4(CC4)C3)nc(OC[C@@]34CCCN3C[C@H](F)C4)nc2cc1-c1cccc2cccc(Cl)c12 [Compound 421, 7-(8-chloro-1-naphthyl)-4-(4,7-diazaspiro[2.5]octan-7-y1)-6-fluoro-2-[[(2R,8S)-2-fluoro-1,2,3,5,6,7-hexahydropyrrolizin-8-yl]methoxy]quinazoline] — not separable, > 1 µM
- Oc1cc(Cl)c(C2CC2)c(-c2cc3nc(OC[C@@]45CCCN4C[C@H](F)C5)nc(N4CCNCC45CC5)c3cc2F)c1 [Compound 412, 3-chloro-4-cyclopropyl-5-[4-(4,7-diazaspiro[2.5]octan-4-yl)-6-fluoro-2-[[(2R,8S)-2-fluoro-1,2,3,5,6,7-hexahydropyrrolizin-8-yl]methoxy]quinazolin-7-yl]phenol] — not separable, > 1 µM

From US20240409558A1, “IRREVERSIBLE INHIBITORS OF KRAS” (BIOMEA FUSION, INC., priority 2021, published 2024)
